The record followed here is patent EP3568131B1, “COMPOSITION COMPRISING 7-HYDROXYMATAIRESINOL FOR USE IN THE TREATMENT AND IN THE PREVENTION OF TRICHOLOGICAL DISEASES OF INFLAMMATORY AND/OR HORMONAL ORIGIN” (Sinerga Group S.r.l., priority 2017, dated 2018).

Where two headings read alike, the source gives them in different places.

Data set [1] concerns human hair dermal papilla cells (HHDPC). In words: MTT cell viability test after cell cycle synchronization (cell proliferation). In kind it is cell-based. Particulars: for viability at 200 µg/mL / viability at 1000 µg/mL: Homo sapiens, HHDPC, vs negative control; for viability at 200 µg/mL: 0.2 mg/ml of 5% glycerine solution; for viability at 1000 µg/mL: 1 mg/ml of 5% glycerine solution. An excerpt: (§1) The purpose of the test is quantitatively establishing the effects of 7-hydroxymatairesinol (HMR) on cell proliferation and on the synthesis of total proteins in human fibroblasts of the dermal papilla through the cell viability test (MTT test) after cycle synchronization, and establishing the protein dosage at different exposure times and at different sub-toxic sample dilutions.
(§2) Dermal papilla cells derived from human hair follicle (HHDPC: human hair dermal papilla cells) with fibroblastic morphology. The cells are cultured in DMEM containing 10% FBS and antibiotics.
(§3) The cells were seeded in 24-well plates and left to grow for 24h at 37°C and 5% CO2. Then they were deprived of the serum 6 hours before the experiment for cell cycle synchronization.
(§4) After 6 hours, fresh culture medium was added without serum but containing the sample to be tested in order to reach different final dilutions. The 5% glycerine-solubilized sample was dissolved in the culture medium. The test was carried out in triplicate.
(§5) After 24 and 48 hours of exposure, the MTT cell viability test and the total protein test using the Bradford method^1 were carried out on separate plates. Untreated cells were used as a negative control (CN), while cells treated with human insulin were used as a positive control (CP).
This method was originally developed by Mossman^2. After 24 and 48 hours of treatment, cell viability was evaluated by incubating the cells with MTT (3-[4,5-dimethylthiazol-2-yl]-2,5-diphenyl tetrazolium bromide) for 2 hours.
The precipitated formazan crystals were then extracted using isopropanol or DMSO and were spectrophotometrically quantified at 570 nm against 650 nm. The absorbance was read with a colorimeter (Tecan, model Sunrise remote) equipped with a plate reader subtracting the reading of the bottom.
The cell viability was expressed as a percentage according to the formula: % of cell viability = [OD(570nm−650nm)testedproduct/OD(570nm−650nm)CN] × 100 [formula] OD: Optical density

The test system of data set [2] is human fibroblasts of the dermal papilla (HHDPC). In words: Total protein dosage (Bradford method). The settings on record: for activation at 1000 µg/mL: 1 mg/ml of 5% glycerine solution. In kind it is cell-based.
Excerpt: as §1, §2, §3, §4, §5
The protein dosage was carried out according to the Bradford method. At the end of the treatment, the cells were washed with sterile PBS and lysed by treatment with purified water at 4°C. The colouring reagent was added to the lysate. A standard curve of albumin titrated to 20, 40, 80 and 100 µg/ml was prepared in a similar manner.
Then 200 µl of each sample, controls and standards, each in triplicate, were transferred to a 96-well plate. The reading was carried out with a colorimeter (Tecan, Sunrise) equipped with a plate reader, at 595 nm.
To quantify proteins, a standard albumin calibration curve was drawn and sample concentrations were calculated using the interpolation curve formula and relative absorbances. The averages of the individual data were then calculated, and for each sample the percentage of increase in protein synthesis was calculated, with respect to the negative control: % protein synthesis increment = (μg/mlsampleprotein/μg/mlCN)∗100 [formula]

A short description of data set [3]: MTT cytotoxicity test on reconstituted 3D epidermis. The format is cell-based. The settings on record: human. Here is the method: • Cytotoxicity through the MTT test at the end of incubation: cell survival test with 3D human epidermis reconstituted in vitro for the evaluation of the cytotoxic potential caused by the sample. • Inhibition of the release of cellular mediators of inflammation (IL-1α) after stress induced with SLS.
(§6) The cell model used for in vitro tests is represented by a three-dimensional system of reconstituted human epidermis in vitro.
(§7) This three-dimensional cellular model is made up of normal human primary keratinocytes, left to grow in vitro in order to simulate the multi-layered architecture of the human epidermis, with a well-differentiated stratum corneum. The model was purchased from CELLSYSTEMS (Troisdorf, batch 100-AE1818-1).
(§8) The skin irritation characterized by the release of IL-1α was caused by an epidermis pre-treatment for 60 minutes with SLS 0.25%.
(§9) Subsequently, 30µl of diluted sample were placed on two units and the exposure was extended for 24 hours at 37°C, 5% CO2. The sample was diluted to 0.25% in phosphate buffer.
(§10) As a negative control, two units of epidermis were treated with phosphate buffer (PBS), as a positive control two units were treated for 60' with 0.25% SLS. The test was carried out in duplicate.
At the end of the exposure, the sample and the references were removed by washing with phosphate buffer (PBS) and the cell viability was assessed.
The epidermis was incubated for 3h at 37°C with a lmg/ml solution of MTT (3- [4,5-dimethylthiazol-2-yl] -2,5-diphenyl tetrazolium bromide).
Then the solution was removed and replaced with isopropanol with subsequent 2 h incubation at room temperature.
Two aliquots of each sample were transferred to a 96-well plate for reading the absorbance, which was carried out at the wavelength of 570 nm, with a colorimeter (Tecan, model Sunrise remote) equipped with a plate reader.
The result was expressed as a cellular viability in percent according to the formula: % cell viability = [OD (570 nm) tested sample/OD (570 nm) CN] x 100
(In general: Tetrazolium assays rely on reduction of a dye to a coloured formazan, in cell work by metabolically active cells.)

The test system of data set [4] is IL-1α. In words: IL-1α release (ELISA) after SLS-induced stress on reconstituted epidermis. The format is cell-based, human. The settings on record: for IL-1α % inhibition: vs positive control.
Excerpt: The study concerns the in vitro evaluation of the anti-inflammatory potential of 7-hydroxymatairesinol against the inflammatory reaction induced by moderate irritants such as sodium lauryl sulphate (SLS), using a model of human skin cells grown in vitro in multilayer.
The inhibition of the cytokine IL-1α release caused by SLS is investigated by specific ELISA tests in the presence of the tested substance compared to untreated skin samples.
as §6, §7, §8, §9, §10
For the analysis of IL-1α, samples of culture medium were taken at 6 and 24 hours. The maintenance medium of the units treated with PBS and the medium of two non-irritated skin units treated only with the sample were taken as negative control, whereas the culture medium of two skin units treated with the 0.25% SLS solution was used as a positive control.
In this study, IL-1α was dosed using the direct-type ELISA (Enzyme-linked immunosorbent assay) method, i.e. the colour development was directly proportional to the amount of cytokines in the culture medium.
The reading was carried out at 450 nm. The sensitivity limit of this test was less than 10 pg/ml.
The IL-1α concentration was determined using a standard curve as a reference. The inhibition of IL1-α release was determined as: % IL-1α inhibition: 100- (pg/ml IL-1α released from the irritated sample/pg/ml IL-1α positive control)* 100

The subject of data set [5] is 5α-reductase. The experiment in a line: Gene expression of 5α-reductase by qRT-PCR in testosterone-treated dermal papilla cells. In kind it is cell-based. The settings on record: Homo sapiens, HHDPC, 48 h. An excerpt: Measurement of the gene expression level of 5α-reductase by means of Real Time Polymerase Chain Reaction (qRT-PCR) in human cells of the dermal papilla with and without treatment with the sample. The purpose of the test is to highlight and quantify changes in gene expression of 5α-reductase levels in cell cultures exposed to treatment with the tested substance compared to controls of the same untreated cells. This enzyme is expressed in skin melanocytes, fibroblasts and keratinocytes and turns testosterone into di-hydro-testosterone, a key metabolite implicated in various skin disorders such as acne vulgaris, hirsutism, seborrhoea and androgenetic alopecia. After birth, the 5α-reductase enzyme (type 1) is expressed in multiple body areas, including liver, skin, scalp and prostate. 5α-reductase (type 2) is expressed in prostate, seminal vesicles, epididymis, liver, and, to a lesser extent, scalp and skin. In this test, the cells are previously treated with testosterone to induce 5α-reductase production and are exposed to various test substances for 48 hours. A titrated extract of Serenoa repens, a known pharmacologically active compound used to treat benign prostatic hyperplasia, is used as a positive control. The analysis is carried out through RT-qPCR (Real Time Quantitative Polymerase Chain Reaction), a very sensitive method for the detection and quantification of messenger RNA coding for the protein in analysis and therefore for the corresponding gene activation. RT-qPCR measures the fluorescence emitted by the amplicons produced during each PCR cycle. A culture of human dermal papilla (HHDPC) cells was used. The cells were grown in MEM containing 10% FBS and antibiotics. The cells were seeded in 12-well plates for 24 hours. Then they were treated for 24 hours with 10 ng/ml of testosterone. After this step, fresh culture medium containing the sample to be tested was added. The sample was dissolved directly in the culture medium. The concentrations of the sample to be tested were selected based on preliminary cytotoxicity. […] After precipitation and centrifugation (30' at 12,000 rpm at 4°C), the RNA was resuspended in 20 µl of sterile water and its concentration was determined by spectrophotometry. […] Changes in the gene expression profile are analysed by RT-qPCR using Syber Green as a fluorescent molecule. […] The detection of the fluorescence emitted in each cycle allows monitoring the PCR reaction during the exponential phase, namely where the first significant increases in the PCR product are related to the initial amount of template. […] Subsequently, data can be expressed as "fold change", namely as a ratio with respect to control (a) or as a percentage with respect to control (b). […]

The mark [6] stands for this setting: increase on fibroblasts of human dermal papilla compared to untreated cells.
Setting [7] is: 6 h, sample 0.25% after SLS 0.25% pre-treatment.
[8] abbreviates: 24 h, sample 0.25% after SLS 0.25% pre-treatment.

Take `COc1cc(C[C@H]2C(=O)OC[C@@H]2[C@H](O)c2ccc(O)c(OC)c2)ccc1O` [HMR, 7-hydroxymatairesinol]: the values for the viability at 200 µg/mL in data set [1] (24 h) and in data set [1] (48 h) were 110% and 119%, respectively. In addition, the results for the viability at 1000 µg/mL in data set [1] (24 h) and in data set [1] (48 h) were 99.7% and 105%, respectively. The cell proliferation in data set [1] (setting [6]) worked out at 19%. In addition, the activation at 200 µg/mL in data set [2] (Homo sapiens, Fibroblast, HHDPC, 24 h, 0.2 mg/ml of 5% glycerine solution, increase vs negative control, read-out: % protein synthesis) was 10.4%. For the same compound, the activation at 1000 µg/mL in data set [2] (Homo sapiens, Fibroblast, HHDPC, 24 h, increase vs negative control, read-out: % protein synthesis) worked out at 24.5%; in data set [2] (Homo sapiens, Fibroblast, HHDPC, 48 h, increase vs negative control, read-out: % protein synthesis), 16.8%. The compound also displayed a protein synthesis in data set [2] (setting [6]) of 24%. Besides, the viability – broadly, a read-out of living cells in per cent, often relative to untreated cells – at 24 h in data set [3] (sample 0.25% in phosphate buffer alone, 24 hours exposure, read-out: % average cell viability (ds)) stood at 78.2%; in data set [3] (sample 0.25%, 24 hours, after 60 minutes pre-treatment with SLS 0.25%, read-out: % average cell viability (ds)), 55.9%. Moreover, the “IL-1α Mean” value in data set [4] (setting [7]) was determined as 19.72 pg/mL; in data set [4] (6 h, sample 0.25% alone, non-irritated epidermis), 18.07 pg/mL; in data set [4] (setting [8]), 97.70 pg/mL; in data set [4] (24 h, sample 0.25% alone, non-irritated epidermis) it was 26.40 pg/mL. Also, the IL-1α % inhibition in data set [4] (setting [7]) is 13.94%; in data set [4] (setting [8]), 51.32%. In data set [5] (0.2 mg/ml of solution (stated as 0.01% HMR), vs untreated control, read-out: % 5a-reductase (ds) expression), the mrna remaining at 0.01 % is 90.9%. The inhibition at 0.01 % in data set [5] (0.2 mg/ml of solution (stated as 0.01% HMR), vs untreated control, read-out: % reduction) was 9.07%. Moreover, in data set [5] (1 mg/ml of solution (stated as 0.05% HMR), 5α-reductase mRNA vs untreated control, read-out: % reduction), the inhibition at 0.05 % is 57.1%. Further, the mrna remaining at 0.05 % in data set [5] (1 mg/ml of solution (stated as 0.05% HMR), vs untreated control, read-out: % 5a-reductase (ds) expression) is 42.9%.
Consider `CCCCCCCCCCCCOS(=O)(=O)[O-].[Na+]` [SLS, sodium lauryl sulphate, reference compound], for which the viability at 1 h in data set [3] (SLS 0.25% for 60 minutes, positive control, read-out: % average cell viability (ds)) is 50%. Besides, the viability in data set [3] (positive control (SLS 0.25%), test acceptability table) was determined as 50%. Besides, the “IL-1α Mean” value in data set [4] (6 h, SLS 0.25% for 60 minutes, positive control) stood at 22.92 pg/mL; in data set [4] (24 h, SLS 0.25% for 60 minutes, positive control), 200.72 pg/mL.
